Test results as given in ChEMBL document CHEMBL4354831, “Novel Cell-Penetrating Peptide Conjugated Proteasome Inhibitors: Anticancer and Antifungal Investigations” (J Med Chem, 2020).
In brackets after ≈: the same amount, converted by molar mass. Activity calls are given as the source filed them. The rule behind the calls is not given here. Peptide text beside a SMILES is read from it.

Columns and labels:
BE(2)-C [1] = assay: Antiproliferative activity against human BE(2)-C cells assessed as reduction in cell viability after 48 hrs by MTT assay; assay type: functional, cell-based
[2] = biological target: 20S proteasome (Homo sapiens) (UniProt P49721+P20618+P28074+P28062+P28065+P28072+P25786+P25787+P25788+P25789+P28066+P60900+O14818+Q8TAA3+P40306+A5LHX3+P49720+P28070+Q99436); assay: Inhibition of 20S proteasome in human HeLa cells at 2xIC50 using LLVY-R110 peptide as substrate measured up to 36 hrs by fluorescence based assay; assay type: cell-based
Candida albicans [3] = assay: Induction of pore formation in Candida albicans SC5314 membrane at 2xMBEC by SEM analysis; assay type: organism-based; conditions: Cell membrane
Candida albicans [4] = assay: Antifungal activity against Candida albicans SC5314 after 48 hrs; assay type: functional; conditions: SC5314, 48 h
BE(2)-C [5] = assay: Induction of apoptosis in human BE(2)-C cells assessed as DNA damage at 2xIC50 after 24 hrs by Hoechst-33342 staining based inverted fluorescence microscopic analysis; assay type: functional, cell-based
BE(2)-C [6] = assay: Induction of apoptosis in human BE(2)-C cells at 2xIC50 after 24 hrs by Annexin-V alexa fluor 488/PI staining based fluorescence microscopic analysis; assay type: functional, cell-based
HeLa [7] = assay: Induction of apoptosis in human HeLa cells assessed as DNA damage at 2xIC50 after 24 hrs by SYTO9/PI-staining based inverted fluorescence microscopic analysis; assay type: functional, cell-based
BE(2)-C [8] = assay: Ratio of IC50 for antiproliferative activity against human BE(2)-C cells to IC50 for antiproliferative activity against human BE(2)-C cells in presence of cisplatin; assay type: functional
HeLa [9] = assay: Induction of apoptosis in human HeLa cells assessed as necrotic cells at 2xIC50 after 24 hrs by Alexa flour 488 annexin V/PI- staining based flow cytometric analysis relative to control; assay type: functional
HeLa [10] = assay: Induction of membrane disruption in human HeLa cells assessed as membrane blebbing at 2xIC50 after 24 hrs by SYTO9/PI-staining based inverted fluorescence microscopic analysis; conditions: Cell membrane
HeLa [11] = assay: Induction of membrane disruption in human HeLa cells assessed as membrane lysis at 2xIC50 after 24 hrs by SYTO9/PI-staining based inverted fluorescence microscopic analysis; conditions: Cell membrane
BE(2)-C [12] = assay: Induction of membrane disruption in human BE(2)-C cells assessed as red fluorescence at 2xIC50 after 24 hrs by SYTO9/PI-staining based inverted fluorescence microscopic analysis; conditions: Cell membrane
Candida albicans [13] = assay: Induction of hyphal disruption in Candida albicans SC5314 assessed as hyphal debris at 2xMBEC by SEM analysis; assay type: organism-based; conditions: Hyphae
BE(2)-C [14] = assay: Synergistic antiproliferative activity against human BE(2)-C cells assessed as FICI in presence of cisplatin after 48 hrs by MTT assay; assay type: functional
HeLa [15] = assay: Induction of ROS generation in human HeLa cells after 24 hrs by DCFH-DA staining based fluorescence analysis; assay type: functional, cell-based
20S proteasome = assay: Inhibition of human 20S proteasome using Suc-LLVY-AMC as substrate measured every 5 mins for 120 mins by fluorescence based assay; assay type: protein-complex assay
HeLa [16] = assay: Induction of membrane disruption in human HeLa cells assessed as red fluorescence at 2xIC50 after 24 hrs by SYTO9/PI-staining based inverted fluorescence microscopic analysis; conditions: Cell membrane
HeLa [17] = assay: Induction of apoptosis in human HeLa cells assessed as DNA damage at 2xIC50 after 24 hrs by Hoechst-33342 staining based inverted fluorescence microscopic analysis; assay type: functional, cell-based
Candida albicans [18] = assay: Antifungal activity against Candida albicans SC5314 in presence of amphotericin B after 24 to 48 hrs by checker board assay; assay type: functional
Candida albicans [19] = assay: Synergistic antifungal activity against Candida albicans SC5314 assessed as FICI in presence of amphotericin B after 24 to 48 hrs by checker board assay; assay type: functional
BE(2)-C [20] = assay: Induction of membrane blebbing in human BE(2)-C cells at 2xIC50 after 12 hrs by SEM analysis; assay type: cell-based; conditions: Cell membrane
HeLa [21] = assay: Induction of necrosis in human HeLa cells at 2xIC50 after 24 hrs by Annexin-V alexa fluor 488/PI staining based fluorescence microscopic analysis; assay type: functional, cell-based
Candida albicans [22] = assay: Ratio of MIC for antifungal activity against Candida albicans SC5314 to MIC for antifungal activity against Candida albicans SC5314 in presence of amphotericin B after 24 to 48 hrs by checker board assay; assay type: functional
HeLa [23] = assay: Induction of apoptosis in human HeLa cells at 2xIC50 after 24 hrs by Annexin-V alexa fluor 488/PI staining based fluorescence microscopic analysis; assay type: functional, cell-based
BE(2)-C [24] = assay: Induction of pore formation in human BE(2)-C cell membrane at 2xIC50 after 12 hrs by SEM analysis; assay type: functional, cell-based
BE(2)-C [25] = assay: Induction of apoptosis in human BE(2)-C cells assessed as condensed chromatin at 2xIC50 after 24 hrs by Hoechst-33342 staining based inverted fluorescence microscopic analysis; assay type: functional, cell-based
HeLa [26] = assay: Induction of ROS generation in human HeLa cells at 2xIC50 measured up to 24 hrs in presence of ROS quencher, ascorbic acid by DCFH-DA staining based fluorescence analysis; assay type: functional, cell-based
Candida albicans SC5314 = assay: Inhibition of Candida albicans SC5314 proteasome at antifungal MIC after 12 hrs by fluorescence based analysis
HeLa [27] = assay: Ratio of IC50 for antiproliferative activity against human HeLa cells to IC50 for antiproliferative activity against human HeLa in presence of cisplatin; assay type: functional
BE(2)-C [28] = assay: Antiproliferative activity against human BE(2)-C cells assessed as reduction in cell viability in presence of cisplatin after 48 hrs by MTT assay; assay type: functional, cell-based
BE(2)-C [29] = assay: Induction of membrane disruption in human BE(2)-C cells assessed as membrane blebbing at 2xIC50 after 24 hrs by SYTO9/PI-staining based inverted fluorescence microscopic analysis; conditions: Cell membrane
BE(2)-C [30] = assay: Induction of membrane disruption in human BE(2)-C cells assessed as increase in cell debris with damaged membrane at 2xIC50 after 12 hrs by SEM analysis; assay type: cell-based
Candida albicans [31] = assay: Potentiation of amphotericin B-induced antifungal activity against Candida albicans SC5314 assessed as amphotericin MIC after 24 to 48 hrs by checker board assay; assay type: functional
BE(2)-C [32] = assay: Induction of ROS generation in human BE(2)-C cells at 2xIC50 by DCFH-DA staining based fluorescence analysis; assay type: functional, cell-based; conditions: TDE = time-dependent effect
BE(2)-C [33] = assay: Induction of ROS generation in human BE(2)-C cells at 0.4 to 200 uM after 24 hrs in presence of ROS quencher, ascorbic acid by DCFH-DA staining based fluorescence analysis; assay type: functional, cell-based
HeLa [34] = assay: Induction of membrane blebbing in human HeLa cells at 2xIC50 after 12 hrs by SEM analysis; assay type: cell-based; conditions: Cell membrane
BE(2)-C [35] = assay: Induction of ROS generation in human BE(2)-C cells after 24 hrs by DCFH-DA staining based fluorescence analysis; assay type: functional, cell-based
HeLa [36] = assay: Induction of apoptosis in human HeLa cells assessed as condensed chromatin at 2xIC50 after 24 hrs by Hoechst-33342 staining based inverted fluorescence microscopic analysis; assay type: functional, cell-based
Candida albicans [37] = assay: Potentiation of amphotericin B-induced antifungal activity against Candida albicans SC5314 assessed as fold reduction in amphotericin MIC after 24 to 48 hrs by checker board assay relative to amphotericin alone; assay type: functional

Structure (SMILES) | IC50 (BE(2)-C [1]) | inhibition [2] | Activity (Candida albicans [3]) | MIC (Candida albicans [4]) | Activity (BE(2)-C [5]) | Activity (BE(2)-C [6]) | Activity (HeLa [7]) | Ratio IC50 (BE(2)-C [8]) | Activity (HeLa [9]) | Activity (HeLa [10]) | Activity (HeLa [11]) | Activity (BE(2)-C [12]) | Activity (Candida albicans [13]) | fractional inhibitory concentration index (FICI) (BE(2)-C [14]) | Activity (HeLa [15]) | IC50 (20S proteasome) | Activity (HeLa [16]) | Activity (HeLa [17]) | MIC (Candida albicans [18]) | fractional inhibitory concentration index (FICI) (Candida albicans [19]) | other results
CC(=O)N[C@@H](Cc1ccc(O)cc1)C(=O)NCC(=O)N[C@@H](CCCNC(=N)N)C(=O)N[C@@H](CCCCN)C(=O)N[C@@H](CCCCN)C(=O)N[C@@H](CCCNC(=N)N)C(=O)N[C@@H](CCCNC(=N)N)C(=O)N[C@@H](CCC(N)=O)C(=O)N[C@@H](CCCNC(=N)N)C(=O)N[C@@H](CCCNC(=N)N)C(=O)N[C@@H](CCCNC(=N)N)C(=O)NCC(=O)NCC(=O)NCC(=O)N[C@@H](CC(C)C)C(=O)N[C@@H](CC(C)C)C(=O)N[C@H](C=O)CC(C)C (Ac-YGRKKRRQRRRGGGLLL-aldehyde) | 10300 nM | Active | Active | 31.2 µM (≈ 65.5 µg/mL) | Active | Active | Active | 2.5 | 4.8% | Active | Active | Active | Active | 0.79 | Dose-dependent effect | 2.5 nM | Active | Active | 6.25 µM | 0.36 | Activity (BE(2)-C [20]): Active; Activity (HeLa [21]): Active; Ratio (Candida albicans [22]): 5; Activity (HeLa [23]): Active; Activity (BE(2)-C [24]): Active; Activity (BE(2)-C [25]): Active; Activity (HeLa [26]): inactive; inhibition (Candida albicans SC5314): Active; Ratio IC50 (HeLa [27]): 5; IC50 (BE(2)-C [28]): 4190 nM; Activity (BE(2)-C [29]): Active; Activity (BE(2)-C [30]): Active; MIC (Candida albicans [31]): 0.25 µM; Activity (BE(2)-C [32]): Tde; Activity (BE(2)-C [33]): inactive; Activity (HeLa [34]): Active; Activity (BE(2)-C [35]): Dose-dependent effect; Activity (HeLa [36]): Active; fold change (FC) (Candida albicans [37]): 6
CC(=O)N[C@@H](Cc1ccc(O)cc1)C(=O)NCC(=O)N[C@@H](CCCNC(=N)N)C(=O)N[C@@H](CCCCN)C(=O)N[C@@H](CCCCN)C(=O)N[C@@H](CCCNC(=N)N)C(=O)N[C@@H](CCCNC(=N)N)C(=O)N[C@@H](CCC(N)=O)C(=O)N[C@@H](CCCNC(=N)N)C(=O)N[C@@H](CCCNC(=N)N)C(=O)N[C@@H](CCCNC(=N)N)C(=O)NCC(=O)NCC(=O)NCC(=O)N[C@@H](Cc1ccc(O)cc1)C(=O)N[C@@H](CC(C)C)C(=O)N[C@@H](Cc1ccccc1)C(=O)N[C@H](C=O)CC(C)C (Ac-YGRKKRRQRRRGGGYLFL-aldehyde) | 4700 nM | Active | Active | 15.6 µM (≈ 35.8 µg/mL) | Active | Active | Active | 4 | 2.8% | Active | Active | Active | Active | 0.49 | Dose-dependent effect | 4.28 to 4.3 nM | Active | Active | 3.12 µM | 0.35 | Activity (BE(2)-C [20]): Active; Activity (HeLa [21]): Active; Ratio (Candida albicans [22]): 5; Activity (HeLa [23]): Active; Activity (BE(2)-C [24]): Active; Activity (BE(2)-C [25]): Active; Activity (HeLa [26]): inactive; inhibition (Candida albicans SC5314): Active; Ratio IC50 (HeLa [27]): 4; IC50 (BE(2)-C [28]): 1580 nM; Activity (BE(2)-C [29]): Active; Activity (BE(2)-C [30]): Active; MIC (Candida albicans [31]): 0.25 µM; Activity (BE(2)-C [32]): Tde; Activity (BE(2)-C [33]): inactive; Activity (HeLa [34]): Active; Activity (BE(2)-C [35]): Dose-dependent effect; Activity (HeLa [36]): Active; fold change (FC) (Candida albicans [37]): 6
